Measurements as given in patent US9815851B2, “Pyrrolo carboxamides as modulators of orphan nuclear receptor RAR-related orphan receptor-gamma (RORγ, NR1F3) activity and for the treatment of chronic inflammatory and autoimmune diseases” (PHENEX PHARMACEUTICALS AG, priority 2011, dated 2017).
Like-named read-outs stand apart in the source and are kept apart here.

Key:
RORγ = molecular target: T1, RORγ (UniProt P51449); assay: RORγ Gal4 Reporter Gene Assay in 293T cells (firefly and renilla luciferase); type: cell-based, human
T1 sequence (P51449 1-518): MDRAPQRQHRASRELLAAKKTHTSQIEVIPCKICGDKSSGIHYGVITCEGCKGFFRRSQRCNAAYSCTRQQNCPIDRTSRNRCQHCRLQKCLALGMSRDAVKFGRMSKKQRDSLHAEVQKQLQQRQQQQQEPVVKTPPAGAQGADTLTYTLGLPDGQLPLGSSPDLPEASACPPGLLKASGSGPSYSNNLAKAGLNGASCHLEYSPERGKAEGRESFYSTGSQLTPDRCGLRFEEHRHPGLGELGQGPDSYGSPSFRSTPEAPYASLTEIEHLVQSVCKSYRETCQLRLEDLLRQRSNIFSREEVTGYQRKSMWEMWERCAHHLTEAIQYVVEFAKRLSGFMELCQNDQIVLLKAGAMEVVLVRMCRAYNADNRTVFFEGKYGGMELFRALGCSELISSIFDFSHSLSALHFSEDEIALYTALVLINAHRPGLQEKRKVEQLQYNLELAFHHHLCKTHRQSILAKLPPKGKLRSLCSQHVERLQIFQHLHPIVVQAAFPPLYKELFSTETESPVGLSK

[1] = molecular target: T2, RORγ ligand binding domain (LBD) (Homo sapiens, UniProt P51449); assay: TR-FRET Activity Assay (ligand sensing, RORγ-LBD / coactivator peptide interaction, LANCE); type: biochemical
T2 construct: made in house; host or cells: E. coli BL-21 (BL3), vector pDEST15
T2 sequence (P51449 269-508 limits assumed): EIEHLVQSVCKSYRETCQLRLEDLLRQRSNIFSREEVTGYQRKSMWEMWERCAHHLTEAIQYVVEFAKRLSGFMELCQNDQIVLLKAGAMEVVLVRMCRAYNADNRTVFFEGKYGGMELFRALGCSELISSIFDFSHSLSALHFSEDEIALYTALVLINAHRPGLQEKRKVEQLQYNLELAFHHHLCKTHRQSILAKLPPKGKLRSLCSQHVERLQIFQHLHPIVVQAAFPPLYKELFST

[2] = second value of the cell, Gal4 reporter gene assay in 293T cells, firefly luciferase
[3] = third value of the cell, Gal4 reporter gene assay in 293T cells, renilla normalised luciferase
[4] = first value of the cell FRET/FF/REN, TR-FRET activity assay, read-out: pIC50 (FRET) (converted)

Row | SMILES | pIC50 (FF) (RORγ; [2]) | pIC50 (REN) (RORγ; [3]) | IC50 [1, 4] | pIC50 (FF) (RORγ) | pIC50 (REN) (RORγ) | IC50 [1]
1 | Cc1c(C(=O)NC2CCOCC2)cc(-c2ccc(C(=O)NCC(F)(F)F)c(C(C)(C)C)c2)n1CC1CCCCC1 [6/2] | 6.5 | 6.4 | 3.16 µM | – | – | –
2 | Cc1c(C(=O)NC2CCOCC2)cc(-c2ccc(C(N)=O)c(C(C)(C)C)c2)n1CC1CCCCC1 [6/3] | – | – | – | 5.1/5.9/5.7 | 5.1/5.9/5.7 | 7.94 µM
3 | CNC(=O)c1ccc(-c2cc(C(=O)NC3CCOCC3)c(C)n2CC2CCCCC2)cc1C(C)(C)C [6/4] | < 4.7 | < 4.7 | 10 µM | – | – | –
4 | Cc1c(C(=O)NC2CCOCC2)cc(-c2ccc(C(=O)N(C)C)c(C(C)(C)C)c2)n1CC1CCCCC1 [6/5] | 6.5 | 6.4 | 2.51 µM | – | – | –
5 | Cc1c(C(=O)NC2CCOCC2)cc(-c2ccc(C(=O)NC3CCCCC3)c(C(C)(C)C)c2)n1CC1CCCCC1 [6/6] | – | – | – | 6.2/6.8/6.7 | 6.2/6.8/6.7 | 0.631 µM
6 | Cc1c(C(=O)NC2CCOCC2)cc(-c2ccc(C(=O)NCC3CCCCC3)c(C(C)(C)C)c2)n1CC1CCCCC1 [6/7] | – | – | – | 6.0/6.5/6.4 | 6.0/6.5/6.4 | 1 µM
7 | Cc1c(C(=O)NC2CCOCC2)cc(-c2ccc(C(=O)NC(C)(C)C)c(C(F)(F)F)c2)n1CC1CCCCC1 [6/8] | – | – | – | 5.0/6.8/7.3 | 5.0/6.8/7.3 | 10 µM
8 | Cc1c(C(=O)NC2CCOCC2)cc(-c2ccc(C(=O)NC3CCCCC3)c(C(F)(F)F)c2)n1CC1CCCCC1 [6/9] | 6.4 | 6.2 | 10 µM | – | – | –
9 | Cc1c(C(=O)NC2COC2)cc(-c2cc(C(C)(C)C)cc(C(C)(C)C)c2)n1S(=O)(=O)N1CCCC(C)C1 (stereo not drawn) [7/2] | – | – | – | 6.6/7.0/7.0 | 6.6/7.0/7.0 | 0.251 µM
10 | Cc1c(C(=O)NC2COC2)cc(-c2cc(C(C)(C)C)cc(C(C)(C)C)c2)n1S(=O)(=O)N(C)C1CCCCC1 [7/5] | – | – | – | 6.5/6.3/6.4 | 6.5/6.3/6.4 | 0.316 µM
11 | Cc1c(C(=O)NC2COC2)cc(-c2cn(S(=O)(=O)N3CCCCC3)c3ccccc23)n1CC1CCCCC1 [9/1] | 7.5 | 7.5 | 0.501 µM | – | – | –
12 | Cc1c(C(=O)NCC(C)(C)O)cc(-c2cn(S(=O)(=O)N3CCCCC3)c3ccccc23)n1CC1CCCCC1 [9/2] | 7.4 | 7.5 | 0.631 µM | – | – | –
13 | CCC(C)(C)NS(=O)(=O)c1ccc(-c2cc(C(=O)NC3COC3)c(C)n2CC2CCCCC2)cc1C(C)(C)C [9/7] | 7.5 | 7.5 | 0.501 µM | – | – | –
14 | CCN(C(C)(C)C)S(=O)(=O)c1ccc(-c2cc(C(=O)NCC(C)(C)O)c(C)n2CC2CCCCC2)cc1C(C)(C)C [9/10] | – | – | – | 6.5/7.7/7.2 | 6.5/7.7/7.2 | 0.316 µM
15 | Cc1c(C(=O)NC2COC2)cc(-c2cc(C(C)(C)C)nc(C(F)(F)F)c2)n1CC1CCCCC1 [9/15] | – | – | – | 6.5/6.5/6.5 | 6.5/6.5/6.5 | 0.316 µM
16 | Cc1c(C(=O)NCC(C)(C)C(=O)NCCC(=O)O)cc(-c2cc(C(C)(C)C)c3c(c2)C2(CCO3)CC2)n1CC1CCCCC1 [11/3] | 6.5 | 6.5 | 1 µM | – | – | –
17 | Cc1c(C(=O)NCC(C)(C)C(=O)NCCO)cc(-c2cc(C(C)(C)C)c3c(c2)C2(CCO3)CC2)n1CC1CCCCC1 [11/5] | – | – | – | 6.5/7.3/7.4 | 6.5/7.3/7.4 | 0.316 µM
18 | Cc1c(C(=O)NCC(C)(C)C(=O)NCCCO)cc(-c2cc(C(C)(C)C)c3c(c2)C2(CCO3)CC2)n1CC1CCCCC1 [11/6] | 8.0 | 8.2 | 0.251 µM | – | – | –
19 | Cc1c(C(=O)NCC(C)(C)C(=O)NCCCCO)cc(-c2cc(C(C)(C)C)c3c(c2)C2(CCO3)CC2)n1CC1CCCCC1 [11/7] | 7.1 | 7.2 | 0.251 µM | – | – | –
20 | Cc1c(C(=O)NC2COC2)cc(-c2cc(C(=O)N(C)C(C)(C)C)cc(C(F)(F)F)c2)n1CC1CCCCC1 [15/1] | – | – | – | 5.7/6.6/6.7 | 5.7/6.6/6.7 | 2 µM
21 | Cc1c(C(=O)NC2COC2)cc(-c2cc(C(=O)N(C)C(C)(C)C)cc(C(C)(C)C)c2)n1CC1CCCCC1 [15/4] | – | – | – | 5.8/7.3/7.3 | 5.8/7.3/7.3 | 1.58 µM
22 | Cc1c(C(=O)NC2COC2)cc(-c2cc(C(=O)NC(C)(C)C)cc(C(C)(C)C)c2)n1CC1CCCCC1 [15/5] | – | – | – | 6.1/7.6/7.7 | 6.1/7.6/7.7 | 0.794 µM

Second part, led by results:

Row | pIC50 (FF) (RORγ; [2]) | pIC50 (REN) (RORγ; [3]) | IC50 [1, 4] | SMILES | pIC50 (FF) (RORγ) | pIC50 (REN) (RORγ) | IC50 [1]
23 | 6.7 | 6.8 | 0.316 µM | Cc1c(C(=O)NC2COC2)cc(-c2cc(C(C)(C)C)cc(C(C)(C)C)c2)n1S(=O)(=O)N1CCC(C)CC1 [7/1] | – | – | –
24 | 6.6 | 6.7 | 0.251 µM | Cc1c(C(=O)NC2COC2)cc(-c2cc(C(C)(C)C)cc(C(C)(C)C)c2)n1S(=O)(=O)N1CC(C)CC(C)C1 (stereo not drawn) [7/3] | – | – | –
25 | 7.1 | 7.1 | 0.2 µM | Cc1c(C(=O)NC2COC2)cc(-c2cc(C(C)(C)C)cc(C(C)(C)C)c2)n1S(=O)(=O)N1CCCCCC1 [7/4] | – | – | –
26 | 6.6 | 6.5 | 0.398 µM | Cc1c(C(=O)NC2COC2)cc(-c2cc(C(C)(C)C)cc(C(C)(C)C)c2)n1S(=O)(=O)N1CCC2(CCCC2)C1 [7/6] | – | – | –
27 | 6.5 | 6.6 | 0.398 µM | Cc1c(C(=O)NCC(C)(C)O)cc(-c2cc(C(C)(C)C)cc(C(C)(C)C)c2)n1S(=O)(=O)N1CCCCC1 [7/7] | – | – | –
28 | 6.0 | 6.2 | 0.501 µM | Cc1c(C(N)=O)cc(-c2cc(C(C)(C)C)cc(C(C)(C)C)c2)n1S(=O)(=O)N1CCCCC1 [7/8] | – | – | –
29 | 7.1 | 7.1 | 0.316 µM | Cc1c(C(=O)NCC(C)(C)O)cc(-c2cc(C(C)(C)C)cc(S(=O)(=O)N(C)C(C)(C)C)c2)n1CC1CCCCC1 [9/3] | – | – | –
30 | 7.1 | 7.2 | 0.631 µM | Cc1c(C(=O)NC2COC2)cc(-c2ccc(S(=O)(=O)NC(C)(C)C)c(C(C)(C)C)c2)n1CC1CCCCC1 [9/4] | – | – | –
31 | 7.2 | 7.2 | 0.316 µM | Cc1c(C(=O)NC2COC2)cc(-c2ccc(S(=O)(=O)N(C)C(C)(C)C)c(C(C)(C)C)c2)n1CC1CCCCC1 [9/5] | – | – | –
32 | 7.7 | 7.8 | 0.251 µM | CCN(C(C)(C)C)S(=O)(=O)c1ccc(-c2cc(C(=O)NC3COC3)c(C)n2CC2CCCCC2)cc1C(C)(C)C [9/6] | – | – | –
33 | 7.0 | 7.1 | 0.631 µM | Cc1c(C(=O)NCC(C)(C)O)cc(-c2ccc(S(=O)(=O)NC(C)(C)C)c(C(C)(C)C)c2)n1CC1CCCCC1 [9/8] | – | – | –
34 | 7.2 | 7.3 | 0.501 µM | Cc1c(C(=O)NCC(C)(C)O)cc(-c2ccc(S(=O)(=O)N(C)C(C)(C)C)c(C(C)(C)C)c2)n1CC1CCCCC1 [9/9] | – | – | –
35 | 7.7 | 7.8 | 0.501 µM | CCC(C)(C)NS(=O)(=O)c1ccc(-c2cc(C(=O)NCC(C)(C)O)c(C)n2CC2CCCCC2)cc1C(C)(C)C [9/11] | – | – | –
36 | 6.3 | 6.5 | 1.58 µM | Cc1c(C(=O)NC2COC2)cc(-c2cnc(NCC(C)(C)C)c(C(F)(F)F)c2)n1CC1CCCCC1 [9/12] | – | – | –
37 | 6.0 | 6.1 | 1 µM | Cc1c(C(=O)NC2COC2)cc(-c2cnc(OCC(C)(C)C)c(C(F)(F)F)c2)n1CC1CCCCC1 [9/13] | – | – | –
38 | 6.3 | 6.2 | 7.94 µM | Cc1c(C(=O)NC2COC2)cc(-c2cc(C(F)(F)F)c(=O)n(CC(C)(C)C)c2)n1CC1CCCCC1 [9/14] | – | – | –
39 | 6.9 | 6.9 | 0.251 µM | Cc1c(C(=O)NCC(C)(C)C(=O)N(C)C)cc(-c2cc(C(C)(C)C)c3c(c2)C2(CCO3)CC2)n1CC1CCCCC1 [11/2] | – | – | –
40 | 6.9 | 7.0 | 0.398 µM | Cc1c(C(=O)NCC(C)(C)C(=O)NCCS(C)(=O)=O)cc(-c2cc(C(C)(C)C)c3c(c2)C2(CCO3)CC2)n1CC1CCCCC1 [11/4] | – | – | –
41 | 6.3 | 6.3 | 1 µM | Cc1c(C(=O)NC2COC2)cc(-c2cc(C(=O)NC(C)C)cc(C(F)(F)F)c2)n1CC1CCCCC1 [15/2] | – | – | –
42 | 7.0 | 7.1 | 0.398 µM | CCC(C)(C)NC(=O)c1cc(-c2cc(C(=O)NC3COC3)c(C)n2CC2CCCCC2)cc(C(F)(F)F)c1 [15/3] | – | – | –
